Like-named read-outs stand apart in the source and are kept apart here.

The test system of series [1] is circulating peripheral blood monocytes, lymphocytes, neutrophils and platelets. The series can be described thus: Cytotoxicity of CdA in vivo: blood cell counts in cutaneous T-cell lymphoma patients. More on the design: species or system human. The procedure: FIG. 1 is a graph showing the results of a study of the cytotoxicity of 2-chlorodeoxyadenosine (CdA) toward three cell types in the peripheral blood of eight cutaneous T-cell lymphoma patients. A continuous intravenous infusion of CdA (0.1 mg/ml in isotonic saline) was administered to each patients at a dosage of 0.1 mg/kg per day, with the patients receiving therapy for seven days. Blood samples were removed daily and cell counts performed, with averaged values being shown. Graph symbols are as follows: open squares indicate the monocytes; plus signs indicate neutrophils (X10^-1); and closed diamonds indicate lymphocytes. The cell concentration (ordinate) is plotted for the day of treatment (abscissa) on which it is measured.
The effect of 2-chlorodeoxyadenosine (CdA) administration upon the level of circulating peripheral blood monocytes, lymphocytes, neutrophils and platelets was determined as follows.
Eight cutaneous T-cell lymphoma patients were administered continuous intravenous infusion of a composition containing 2-chlorodeoxyadenosine at a dosage of 0.1 mg/kg of body weight per day in isotonic saline. Blood samples were obtained daily and the number of viable cells present were enumerated daily for seven days after treatment.

The next series relates to normal human monocytes. The series can be described thus: In vitro cytotoxicity toward human monocytes (MTT reduction assay). It counts as cell-based. The settings on record: for IC50: Homo sapiens, Monocyte. An excerpt: The percentage of viable cells remaining after treatment (ordinate) is plotted against the concentration of CdA utilized (abscissa), on a linear scale.
Peripheral blood monocytes and lymphocytes were isolated by well known methods from normal subjects. […] The human fibroblast cell line GMO1380 was obtained originally from the NIGMS Human Genetic Mutant Cell Repository, Camden, N.J., and cultured under the same conditions as above. That cell line was from a normal fetal lung.
Meth., 65: 55-63. After culturing for up to five days, 3-(4,5-dimethylthiazol-2-yl)-2,5-diphenyl tetrazolium bromide (MTT) at 0.2 mg (40 μl) was admixed with each well and the incubation was continued for another 4 hours. The plates were then centrifuged at 1000×g for 10 minutes, and supernatants were carefully aspirated with a finely drawn pipette.
Acidified isopropanol (100 μl; using 0.04N HCl) was added to each well.
Viable cell numbers were determined using a Dynatech microplate spectrophotometer, measuring absorbance at a wavelength of 570 nanometers (nm), using a reference wavelength of 630 nm.

For series [2], the system named is human fibroblast cell line GM01380. The series can be described thus: In vitro cytotoxicity toward human fibroblast cell line (MTT reduction assay). It counts as cell-based. The settings on record: 20 nM CdA, five days. On the procedure: FIG. 2 is a graph illustrating the dose-response cytotoxicity of 2-chlorodeoxyadenosine (CdA) towards normal human monocytes (open squares), the human fibroblast cell line, GM01380, which is from normal fetal lung (open diamonds) and normal human lymphocytes (closed diamonds), when cultured in vitro. Cells were cultured in vitro as described in Example 2 for five days in the presence of varying concentrations of CdA from 0 to 125 nanomolar (nM), after which time viable cells were determined. The percentage of viable cells remaining after treatment (ordinate) is plotted against the concentration of CdA utilized (abscissa), on a linear scale. The effect of the presence of deoxycytidine (dCyd, 100 μM) on CdA toxicity toward monocytes (closed squares) is also illustrated. […]
Toxicity towards the monocytes and fibroblasts was determined by a modification of the MTT reduction assay described in Mosmann (1983) J. Immunol. […]
Viable cell numbers were determined using a Dynatech microplate spectrophotometer, measuring absorbance at a wavelength of 570 nanometers (nm), using a reference wavelength of 630 nm. The assay could detect as few as 2000 unactivated monocytes, and the absorbance of MTT formazan at 570 nm was linear with respect to the number of monocytes over a range of about 2.5-20×10^3 cells.

The subject of a further series is monocytes. The series can be described thus: Monocyte phagocytosis of antibody-coated erythrocytes. The settings on record: three days. It is filed as cell-based, human. On the procedure: FIG. 6 is a graph that illustrates the effects of relatively low doses of CdA used to contact monocytes for a 72 hour time period. Monocyte release of interleukin-6 (IL-6; closed diamonds) and phagocytosis of antibody-coated red blood cells (RBC; closed squares) were examined, as was the viability of the cultured monocytes (open squares). Effects are expressed as a percentage of control values versus the CdA concentration in nanomoles (nM).
The effects of sub-lethal CdA concentrations on monocyte function in vitro was also studied. Cells were contacted and cultured with CdA (5-20 nM) for three days, after which phagocytosis and supernatant IL-6 activity were assayed.
Monocyte phagocytosis was assayed using autologous erythrocyte targets, sensitized with a subagglutinating titer of rabbit anti-human erythrocyte IgG (Cappel, Malvern, Pa.). Monocytes (2×10^5 cells/well) were exposed to sub-toxic concentrations of CdA in microwell plates for 72 hours. Complete medium was replaced with medium containing 10% fetal bovine serum, and a suspension of sensitized erythrocytes (0.25% packed cell volume) was added to the adherent monocyte layers. After incubation for 4 hours at 37 degrees C., the degree of phagocytosis was quantitated by the spectrophotometric method of Jungi (1985) J. Immunol. Meth., 82:141-153. […]

The next series has as its system CEM, wild type. The series can be described thus: Direct comparative cytotoxicity assay (Table II), CEM wild type. It counts as cell-based, human. As to conditions: Homo sapiens, 120 h, read-out: ID50: concentration that produced 50 percent reduction in all numbers after five days. An excerpt: The two compounds, CdA and CAFdA, were also compared for in vitro activity against another group of human cell lines in a direct comparative assay.
^1 Concentration that produced 50 percent reduction in all numbers
^2 CEM cells are T lymphoblasts; DHL9 cells are lymphoblasts.

Turning to `Nc1nc(Cl)nc2c1ncn2[C@H]1C[C@H](O)[C@@H](CO)O1` [CdA, 2-chloro-9,1'-beta-D-2'-deoxyribosyladenine], in series [1] (after cessation of the CdA administration), the “time for monocyte numbers to return to approximately pre-administration values” was “within about two weeks”. In addition, the “decrease in number of circulating lymphocytes” value in series [1] (by the end of period of infusion, 0.1 mg/kg per day) is 30%. In addition, in series [1] (by the seventh treatment day, 0.1 mg/kg per day), the “patients whose monocytes disappeared completely from the circulation” value is “four of the eight”. Moreover, the “mean level of monocyte decrease” value in series [1] (day 7, 0.1 mg/kg per day continuous intravenous infusion, eight patients) was found to be 80%. Also, in series [1] (seven days, 0.1 mg/kg per day), the “number of circulating neutrophils” value is listed as “no significant decrease”. For the same molecule, the “platelet and hemoglobin levels” value in series [1] (seven days, 0.1 mg/kg per day) is given as “constant”. For the same molecule, the IC50 in the series on normal human monocytes (120 h, five days exposure (FIG. 2), read-out: CdA concentration at which 50 percent of the cultured monocytes were killed) worked out at 20 nM; with normal human monocytes (another study, freshly isolated monocytes, read-out: CdA concentration at which 50 percent of freshly isolated monocytes were killed), 22 nM; in the series on CEM, wild type, 21 nM. In addition, the “monocyte sensitivity to CdA in the presence of deoxycytidine” value with normal human monocytes (deoxycytidine 100 μM) is given as “substantially reduced”. For the same molecule, in series [2], the “toxicity on the growth of fibroblast cells” value was “no appreciable toxicity”. In addition, the cell viability entry with monocytes (5-20 nM CdA) is “unchanged cell viability”. For the same molecule, the “phagocytosis of antibody-coated erythrocyte targets” value with monocytes (10 and 20 nM CdA) is given as “markedly suppressed”.
